# In patent US7385051B2, “Fluorescent N2,N3-etheno-purine (2′-deoxy) riboside derivatives and uses thereof” (Bar-llan University, priority 2005, dated 2008):
# “Also recorded” adds a separate entry of the source.
# Experiments:
# rat brain P2Y1-receptor = biological target: T1, rat brain P2Y1-receptor (Rattus norvegicus, UniProt P49651); assay: Agonist-induced Ca2+ release in HEK 293 cells stably transfected with P2Y1-receptor; type: cell-based; details: HEK 293 cells with rat brain P2Y1-receptor
# T1 construct: expressed in transfected cells
# T1 sequence (P49651 whole entry): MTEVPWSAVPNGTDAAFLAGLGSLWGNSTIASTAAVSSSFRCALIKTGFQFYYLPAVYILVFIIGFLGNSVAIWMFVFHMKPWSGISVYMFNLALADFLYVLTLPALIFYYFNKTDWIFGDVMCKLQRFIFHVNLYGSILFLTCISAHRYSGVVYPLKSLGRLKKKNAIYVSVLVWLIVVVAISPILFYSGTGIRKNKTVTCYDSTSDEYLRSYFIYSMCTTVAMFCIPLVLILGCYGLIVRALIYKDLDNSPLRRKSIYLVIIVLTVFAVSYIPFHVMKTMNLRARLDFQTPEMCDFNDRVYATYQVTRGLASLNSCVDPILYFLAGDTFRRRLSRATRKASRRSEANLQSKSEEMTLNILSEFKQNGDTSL
# Description: To examine the efficacy of analogues 30a,d in a functional assay, we tested them by the agonist-induced Ca^2+ release in HEK 293 cells stably transfected with rat brain P2Y1-receptor (FIG. 6) (Voehringer et al., 2000). […] However, a benzyl substitution at N^6 of 30a, as in analogue 30d, reduced the ligand's potency. […] EC50 value in the range of 10^−6 M.
# NTPDase2 [1] = biological target: T2, NTPDase2 (Homo sapiens, UniProt Q9Y5L3); assay: Hydrolysis as substrates of NTPDase2; type: biochemical; details: substrate at 200 μM
# T2 sequence (Q9Y5L3 1-495): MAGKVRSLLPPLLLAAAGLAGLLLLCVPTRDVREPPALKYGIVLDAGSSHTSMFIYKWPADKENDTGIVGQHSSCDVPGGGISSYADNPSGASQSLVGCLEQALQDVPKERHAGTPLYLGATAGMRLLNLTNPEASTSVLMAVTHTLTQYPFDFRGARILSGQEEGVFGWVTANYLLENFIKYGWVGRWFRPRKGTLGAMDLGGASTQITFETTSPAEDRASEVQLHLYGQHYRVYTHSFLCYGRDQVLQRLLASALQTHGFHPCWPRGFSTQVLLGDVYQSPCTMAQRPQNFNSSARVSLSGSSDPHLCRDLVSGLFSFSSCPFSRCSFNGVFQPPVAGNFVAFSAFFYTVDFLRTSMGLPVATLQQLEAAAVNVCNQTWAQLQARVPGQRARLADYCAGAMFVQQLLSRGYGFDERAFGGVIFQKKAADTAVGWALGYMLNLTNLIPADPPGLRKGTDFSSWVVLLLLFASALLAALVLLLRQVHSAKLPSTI
# Experimental: (§1) For evaluation of the probes as substrates/inhibitors of NTPDase1 and 2, the analogues 30a-f were evaluated as either substrates or inhibitors of NTPDase1 and 2. We tested ATP and analogues 30 as substrates of NTPDases 1 and 2 at 100 μM for NTPDase1 and 200 μM for NTPDase2. All analogues were hydrolysed by NTPDases 1 and 2. NTPDase2 hydrolysed analogues 30 better than NTPDase1. When compared to ATP, the rate of hydrolysis of all analogues was lower for NTPDase1 and mostly similar for NTPDase2 (FIGS. 7A-7B).
# NTPDase2 [2] = biological target: T2, NTPDase2; assay: Fluorescence spectra of the nucleotide with and without NTPDase2; type: biochemical; design: made in house; host or cells: COS-7 cells (transfected; lysate used as enzyme); details: 200 μM nucleotide, excitation at 290 nm
# Description: Next, we tested whether N^2,N3-ε-A is suitable for probing ectonucleotidases. […] For this purpose, we measured the fluorescence spectra of 30a and its monophosphate homologue with and without human NTPDase2. We observed that the fluorescence intensity of the nucleotide decreased by ca. ⅓ upon the addition of the enzyme (not shown). This observation is consistent with the lower dielectric constant (polarity) of the protein as compared to that of the aqueous solution. Fluorescence intensity of the bound nucleotide, although lowered, still enables the application of this nucleotide as a fluorescent probe.
# For the fluorescence studies of 30a-NTPDase2 complex, emission spectra of 30a and its monophosphate homologue, 30a′, were measured in the presence of human NTPDase2 using an Aminco-Bowman series 2 Luminescence Spectrometer. Measurement conditions included: 740-780 V sensitivity, 37° C. and excitation at 290 nm. The concentration of the samples was of the order of 2×10^−4 M in the NTPDase incubation mixture. Measurements of the emission spectra were performed in 1.5 ml of 200 μM 30a and 30a′, without enzyme. Enzyme was added (3.6 μg of transfected COS-7 cells lysate), then, emission spectra were measured at 5 min intervals. […]
# NTPDase1 = biological target: T3, NTPDase1 (Homo sapiens, UniProt P49961); assay: Hydrolysis as substrates of NTPDase1; type: biochemical; details: substrate at 100 μM
# T3 sequence (P49961 1-510): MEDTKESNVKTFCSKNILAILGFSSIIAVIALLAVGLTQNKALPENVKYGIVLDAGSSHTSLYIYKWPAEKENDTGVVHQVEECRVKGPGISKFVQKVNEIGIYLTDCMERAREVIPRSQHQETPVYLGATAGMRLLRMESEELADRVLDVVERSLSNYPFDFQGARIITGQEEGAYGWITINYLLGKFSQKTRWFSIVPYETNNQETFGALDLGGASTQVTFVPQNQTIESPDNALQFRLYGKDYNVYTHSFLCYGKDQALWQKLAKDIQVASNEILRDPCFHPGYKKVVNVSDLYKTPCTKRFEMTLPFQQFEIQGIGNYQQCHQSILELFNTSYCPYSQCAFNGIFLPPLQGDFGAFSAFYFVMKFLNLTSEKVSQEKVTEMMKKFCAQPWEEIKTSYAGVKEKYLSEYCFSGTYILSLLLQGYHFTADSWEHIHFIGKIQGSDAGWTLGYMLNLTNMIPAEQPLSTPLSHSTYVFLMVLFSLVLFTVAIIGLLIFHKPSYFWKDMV
# Experimental: as §1
EC50 (rat brain P2Y1-receptor; Ca^2+ release),"Shift of maximum emission upon the addition of the enzyme (NTPDase2 [2]; human NTPDase2, 37° C.)",Rate of hydrolysis by NTPDase1 compared to ATP (NTPDase1),Structure (SMILES),Potency at P2Y1-R compared to ATP / 30a (rat brain P2Y1-receptor),Rate of hydrolysis by NTPDase2 compared to ATP (NTPDase2 [1]),"Decrease of fluorescence intensity upon the addition of the enzyme (NTPDase2 [2]; human NTPDase2 (3.6 μg COS-7 lysate), 37° C.)"
~100 nM,does not shift,–,"Nc1nc2nccn2c2c1ncn2C1OC(COP(=O)(O)OP(=O)(O)OP(=O)(O)O)C(O)C1O (stereo not shown) [Compound 30a, N^2,N3-ethenoadenosine-5′-triphosphate]",almost equipotent with ATP; also recorded: almost equipotent to ATP,almost equipotent to ATP,ca. ⅓; also recorded: lower fluorescence intensity
–,–,less efficiently than ATP,"O=P(O)(O)OP(=O)(O)OP(=O)(O)OCC1OC(n2cnc3c(N(Cc4ccccc4)Cc4ccccc4)nc4nccn4c32)C(O)C1O (stereo not shown) [Compound 30e, N^6,N^6-Dibenzyl-N^2,N3-ethenoadenosine-5′-triphosphate]",–,less efficiently than ATP; also recorded: significant reduction of the affinities,–
